Results on five compounds are retold here after patent US6531610B1 (Abbott Laboratories, priority 1989, dated 2003).

The subject of data set [1] is MT4 cells. Nature of the data set: in vitro. In kind it is cell-based. The settings on record: concentration at which 50% of the cells remain viable; MT4 cells; read-out: LC50 (the source's name). An excerpt:
(§1) The anti-HIV activity of the compounds of the invention can be determined in MT4 cells according to the procedure of Kempf, et. al. (Antimicrob. Agents Chemother. 1991, 35, 2209).

Data set [2] deals with HIV-13B in MT4 cells. In words: Antiviral activity: inhibition of the cytopathic effect of HIV in MT4 cells. The data set is classed as cell-based, HIV-1. For orientation: Protection from cytopathic effect is a common read-out in antiviral testing.
The target of data set [3] is HIV-1 protease (Human immunodeficiency virus type 1 group M subtype B, UniProt P04585). In words: Fluorogenic assay for screening inhibitors of HIV protease. The note with it: Inhibitor Concentration 0.5 nanomolar, fluorogenic substrate, pH 4.5, read-out: Percent Inhibition. In kind it is biochemical. On the procedure: The inhibitory potency of the compounds of the invention can be determined by the following method.
A compound of the invention is dissolved in DMSO and a small aliquot further diluted with DMSO to 100 times the final concentration desired for testing. The reaction is carried out in a 6×50 mm tube in a total volume of 300 microliters. The final concentrations of the components in the reaction buffer are: 125 mM sodium acetate, 1 M sodium chloride, 5 mM dithiothreitol, 0.5 mg/ml bovine serum albumin, 1.3 μM fluorogenic substrate, 2% (v/v) dimethylsulfoxide, pH 4.5. After addition of inhibitor, the reaction mixture is placed in the fluorometer cell holder and incubated at […] for several minutes. The reaction is initiated by the addition of a small aliquot of cold HIV protease. The fluorescence intensity (excitation 340 nm, emission 490 nm) is recorded as a function of time. The reaction rate is determined for the first six to eight minutes. The observed rate is directly proportional to the moles of substrate cleaved per unit time. The percent inhibition is 100×(1-(rate in presence of inhibitor)/(rate in absence of inhibitor)).
Fluorogenic substrate: Dabcyl-[…]EDANS wherein DABCYL=4-(4-dimethylamino-phenyl)azobenzoic acid and EDANS=5-((2-aminoethyl)amino)-naphthalene-1-sulfonic acid.

Data set [4] can be described thus: in vitro. In kind it is cell-based. The settings on record: human.
Excerpt: as §1

Setting [5] is: concentration giving 50% inhibition of the cytopathic effect of HIV, HIV-13B in MT4 cells, read-out: IC50.

Where a name gives a salt, the structure may show the parent alone. Read-outs that look alike come from different tables or passages of the source.

`CC(C)c1nc(CN(C)C(=O)N[C@H](C(=O)N[C@@H](Cc2ccccc2)C[C@H](O)[C@H](Cc2ccccc2)NC(=O)OCc2cnco2)C(C)C)co1` [Example 19]: in data set [1], the CC50 was found to be 87 µM. In addition, in data set [2] (setting [5]), the IC50 (commonly the point on the concentration scale where inhibition reaches its midpoint) is 0.022 to 0.048 µM.

In the case of `CC(C)c1csc(COC(=O)N[C@H](C(=O)N[C@@H](Cc2ccccc2)C[C@H](O)[C@H](Cc2ccccc2)NC(=O)OCc2cncs2)C(C)C)n1` [Example 21, (2S,3S,5S)-5-(N-(N-((4-Isopropyl-2-thiazolyl)methoxycarbonyl)valinyl)amino)-2-(N-((5-thiazolyl)methoxycarbonyl)amino)-1,6-diphenyl-3-hydroxyhexane], the melting point – broadly, the temperature of the solid-liquid transition – was in the range of 62 to 64 °C.

As for `CC(C)c1nc(CC(=O)N[C@H](C(=O)N[C@@H](Cc2ccccc2)C[C@H](O)[C@H](Cc2ccccc2)NC(=O)OCc2cncs2)C(C)C)cs1` [Example 50], the CC50 in data set [1] is over 100 µM. Moreover, in data set [2] (setting [5]), the IC50 was in the range of 0.15 to 0.27 µM.

With `CC(C)c1nc(CN(N)C(=O)N[C@H](C(=O)N[C@@H](Cc2ccccc2)C[C@H](O)[C@H](Cc2ccccc2)NC(=O)OCc2cncs2)C(C)C)cs1` [Example 63, (2S,3S,5S)-5-(N-(N-((N-(Amino)-N-((2-isopropyl-4-thiazolyl)methyl)amino)carbonyl)valinyl)amino)-2-(N-((5-thiazolyl)methoxycarbonyl)amino)-1,6-diphenyl-3-hydroxyhexane Hydrochloride], the inhibition (in general, the relative decrease from the control value, in per cent) at 0.0005 µM in data set [3] worked out at 61%. Further, in data set [4] (concentration at which 50% of the cells remain viable, MT4 cells, read-out: LC50 (the source's name)), the CC50 came out at 45 µM. Besides, the IC50 in data set [2] (Human immunodeficiency virus 1, MT4) was in the range of 0.13 to 0.18 µM.

`CC(C)c1nc(COC(=O)N[C@H](C(=O)N[C@@H](Cc2ccccc2)[C@@H](O)C[C@@H](Cc2cncs2)NC(=O)OCc2cncs2)C(C)C)cs1` [Example 65, (2S,3S,5S)-2-(N-(N-((2-Isopropyl-4-thiazolyl)methoxycarbonyl)valinyl)amino)-1-phenyl-5-(N-((5-thiazolyl)methoxycarbonyl)amino)-6-(5-thiazolyl)-3-hydroxyhexane]: the inhibition at 0.0005 µM in data set [3] turned out to be 70%. The compound further showed a CC50 in data set [4] of over 100 µM. Moreover, the IC50 in data set [2] (Human immunodeficiency virus 1, MT4, read-out: IC50) lay in the range of 0.12 to 0.2 µM.
